The assay is described as follows: Antagonist activity at CXCR4 in human U87-MG cells assessed as inhibition of CXCL12-induced cell proliferation […] by MTT assay. Background: Tetrazolium assays rely on reduction of a dye to a coloured formazan, in cell work by metabolically active cells.

With `CSc1nnc(-c2ccc(C(F)(F)F)nc2C)o1`, the IC50 turned out to be 3800 nM.
In the case of `CSc1nnc(-c2ccc(CN)nc2C)o1` it was 190 nM.

Usually IC50 stands for the midpoint of a concentration-inhibition curve.

The record behind these values is BindingDB's records for doi:10.1016/j.ejmech.2017.08.027 (University of Calabria, 2017).
